# Laboratory results from paper PMC8691691 (ACS Chemical Neuroscience, 2021).
# Where a chain is given by its changes, count along the chain named. Like-named read-outs stand apart in the source and are kept apart here.
# Experiments:
# [1] = target: T1, GlyT2 A210C mutant (Rattus norvegicus, UniProt P58295, A210C); test: [3H]glycine transport by GlyT2 mutant in COS7 cells; format: cell-based
# T1 construct: expressed in transfected cells; host or cells: COS7
# T1 sequence (P58295 1-799 A210C): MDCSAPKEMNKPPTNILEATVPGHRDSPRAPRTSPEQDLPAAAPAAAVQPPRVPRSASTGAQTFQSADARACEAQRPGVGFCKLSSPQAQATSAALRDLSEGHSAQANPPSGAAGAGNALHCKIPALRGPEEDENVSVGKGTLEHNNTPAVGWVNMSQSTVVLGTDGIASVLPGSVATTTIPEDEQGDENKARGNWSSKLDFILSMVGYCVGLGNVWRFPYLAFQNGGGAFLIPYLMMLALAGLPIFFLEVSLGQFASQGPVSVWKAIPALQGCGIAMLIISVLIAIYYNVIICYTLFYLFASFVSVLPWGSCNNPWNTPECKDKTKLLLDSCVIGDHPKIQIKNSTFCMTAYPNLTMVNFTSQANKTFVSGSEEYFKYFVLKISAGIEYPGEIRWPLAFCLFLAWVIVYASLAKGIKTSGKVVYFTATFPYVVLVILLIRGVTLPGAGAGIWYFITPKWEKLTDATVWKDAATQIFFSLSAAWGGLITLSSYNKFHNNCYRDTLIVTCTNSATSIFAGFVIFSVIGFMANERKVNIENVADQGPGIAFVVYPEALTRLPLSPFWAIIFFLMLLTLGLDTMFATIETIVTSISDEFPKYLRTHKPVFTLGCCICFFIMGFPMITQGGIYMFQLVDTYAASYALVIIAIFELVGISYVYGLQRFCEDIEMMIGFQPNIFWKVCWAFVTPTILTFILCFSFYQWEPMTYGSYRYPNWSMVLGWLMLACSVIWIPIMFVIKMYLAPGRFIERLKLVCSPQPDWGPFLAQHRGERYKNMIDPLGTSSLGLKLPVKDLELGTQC
# [2] = target: T2, GlyT2 I285F mutant (Rattus norvegicus, UniProt P58295, I285F); test: as above; format: cell-based
# T2 construct: expressed in transfected cells; host or cells: COS7
# T2 sequence (P58295 1-799 I285F): T1 sequence (P58295 1-799 A210C) with C210A, I285F
# [3] = target: T3, GlyT2 W217F mutant (Rattus norvegicus, UniProt P58295, W217F); test: as above; format: cell-based
# T3 construct: expressed in transfected cells; host or cells: COS7
# T3 sequence (P58295 1-799 W217F): T1 sequence (P58295 1-799 A210C) with C210A, W217F
# [4] = cited from earlier work
IC50 ([1]; read-out: IC50 (Table S1)) [nM],IC50 ([2]; read-out: IC50 (Table S1)) [nM],IC50 ([3]; read-out: IC50 (Table S1)) [nM],Compound,fraction of the drug that crosses the blood–brain barrier [4] [%],IC50 [1] [nM],IC50 [2] [nM],IC50 [3] [nM],"effect of mutation on inhibition of glycine transport ([3]; W217F, 1 μM inhibitor, 20 μM glycine)",blood–brain barrier crossing (in words) [4]
23 ± 3,91 ± 6,23 ± 5,N[C@@H](COC(c1cccc(F)c1)c1ccccc1OCc1ccccc1)C(=O)O (stereo partly drawn) [ALX1393],5,,,,,
,,,"COc1cc(C(=O)NCC2(N(C)C)CCCC2)cc(OC)c1OCc1ccccc1 [ORG25543, N-[[1-(dimethylamino)cyclopentyl]methyl]-3,5-dimethoxy-4-(phenylmethoxy)benzamide]",,20 ± 12,15 ± 4,93 ± 7,selectively reduced ORG25543 inhibition,can cross the blood–brain barrier
